The values below come from PubChem BioAssay AID256 (DTP/NCI, 2004).

In the assay the test system is CD2F1 mice, L1210 leukemia ip, survival T/C. The experiment in a line: NCI In Vivo Anticancer Drug Screen. Data for tumor model L1210 Leukemia (intraperitoneal) in CD2F1 (CDF1) mice. The note with it: higher = longer survival. In outline: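 In this screen, transplantable tumors were grown in mice given either the compound or its vehicle. Results were expressed as the treated measurement relative to the control measurement.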

[1] abbreviates: endpoint: mean survival time, dose: 100.0 mg/kg/injection, schedule: Q01DX001 (ip), vehicle: saline with Tween-80.
The mark [2] stands for this setting: endpoint: mean survival time, dose: 100.0 mg/kg/injection, schedule: Q04DX002 (ip), vehicle: saline with Tween-80.
The mark [3] stands for this setting: endpoint: mean survival time, dose: 100.0 mg/kg/injection, schedule: Q04DX003 (ip), vehicle: saline with Tween-80.
Where [4] appears, read: endpoint: mean survival time, dose: 200.0 mg/kg/injection, schedule: Q01DX001 (ip), vehicle: saline with Tween-80.
The mark [5] stands for this setting: endpoint: mean survival time, dose: 200.0 mg/kg/injection, schedule: Q04DX002 (ip), vehicle: saline with Tween-80.
The mark [6] stands for this setting: endpoint: mean survival time, dose: 200.0 mg/kg/injection, schedule: Q04DX003 (ip), vehicle: saline with Tween-80.
Setting [7] is: endpoint: mean survival time, dose: 400.0 mg/kg/injection, schedule: Q04DX002 (ip), vehicle: saline with Tween-80.
The mark [8] stands for this setting: endpoint: mean survival time, dose: 400.0 mg/kg/injection, schedule: Q04DX003 (ip), vehicle: saline with Tween-80.
[9] abbreviates: endpoint: mean survival time, dose: 50.0 mg/kg/injection, schedule: Q01DX009 (ip), vehicle: saline with Tween-80.
The mark [10] stands for this setting: endpoint: mean survival time, dose: 100.0 mg/kg/injection, schedule: Q01DX009 (ip), vehicle: saline with Tween-80.
Where [11] appears, read: endpoint: mean survival time, dose: 200.0 mg/kg/injection, schedule: Q01DX009 (ip), vehicle: saline with Tween-80.
Where [12] appears, read: endpoint: mean survival time, dose: 100.0 mg/kg/injection, schedule: Q01DX001 (ip), vehicle: saline.
Where [13] appears, read: endpoint: median survival time, dose: 25.0 mg/kg/injection, schedule: Q01DX009 (ip), vehicle: saline with Tween-80.
The mark [14] stands for this setting: endpoint: median survival time, dose: 50.0 mg/kg/injection, schedule: Q01DX009 (ip), vehicle: saline with Tween-80.
Setting [15] is: endpoint: median survival time, dose: 100.0 mg/kg/injection, schedule: Q01DX009 (ip), vehicle: saline with Tween-80.
The mark [16] stands for this setting: endpoint: median survival time, dose: 200.0 mg/kg/injection, schedule: Q01DX009 (ip), vehicle: saline with Tween-80.
[17] abbreviates: endpoint: median survival time, dose: 400.0 mg/kg/injection, schedule: Q01DX009 (ip), vehicle: saline with Tween-80.
Setting [18] is: endpoint: mean survival time, dose: 25.0 mg/kg/injection, schedule: Q04DX003 (ip), vehicle: saline with Tween-80.

Where “and” joins values, the source holds several entries; their conditions need not be identical. Equal values may be shown once. Toxic doses and inconclusive results are not listed.

Take `O=C(NCCS)Nc1ccccc1`: the T/C reads like this: under setting [1], 102 % of control; under setting [2], 104 % of control; under setting [3], 94 % of control; under setting [4], 98 % of control; under setting [5], 96 % of control; under setting [6], 86 % of control and 91 % of control. Further, the T/C under setting [7] was 96 % of control; the T/C under setting [8] is 86 % of control and 92 % of control.
Consider `CCCc1ccc(Nc2c3ccccc3nc3ccccc23)cc1`, for which the T/C was 107 % of control under setting [2], 114 % of control under setting [5] and 105 % of control under setting [7].
Take `CN(C)S(=O)(=O)c1ccccc1C1(O)c2ccccc2-c2ccccc21`: the T/C was 87 % of control under setting [9], 87 % of control under setting [10], 93 % of control under setting [3] and 86 % of control under setting [6].
As for `Cc1cccc(NC(=O)c2cccc(Cl)c2)c1C`, the T/C was 91 % of control under setting [10]; 96 % of control under setting [3]; 96 % of control under setting [11]; 96 % of control under setting [6]; 91 % of control (endpoint: mean survival time, dose: 400.0 mg/kg/injection, schedule: Q01DX009 (ip), vehicle: saline with Tween-80); 96 % of control under setting [8].
With `CCCCCNc1ncnc2c(C)[nH]nc12`, the T/C (endpoint: median survival time, dose: 25.0 mg/kg/injection, schedule: Q01DX009 (ip), vehicle: Klucel (hydroxypropylcellulose) (HPC)) is 101 % of control; the T/C (endpoint: median survival time, dose: 50.0 mg/kg/injection, schedule: Q01DX009 (ip), vehicle: Klucel (hydroxypropylcellulose) (HPC)) was 108 % of control; the T/C (endpoint: median survival time, dose: 100.0 mg/kg/injection, schedule: Q01DX009 (ip), vehicle: Klucel (hydroxypropylcellulose) (HPC)) is 100 % of control; the T/C (endpoint: median survival time, dose: 200.0 mg/kg/injection, schedule: Q01DX009 (ip), vehicle: Klucel (hydroxypropylcellulose) (HPC)) was 96 % of control.
As to `CCOC/C(C)=C/Cl`, the T/C was 106 % of control (endpoint: mean survival time, dose: 100.0 mg/kg/injection, schedule: Q01DX009 (ip), vehicle: acetone) and 103 % of control (endpoint: mean survival time, dose: 200.0 mg/kg/injection, schedule: Q01DX009 (ip), vehicle: acetone).
`O=c1cc(Nc2ccc(Br)cc2)[nH]c(=O)[nH]1`: the T/C (endpoint: mean survival time, dose: 100.0 mg/kg/injection, schedule: Q01DX001 (ip), vehicle: other) was 92 % of control and the T/C (endpoint: mean survival time, dose: 200.0 mg/kg/injection, schedule: Q01DX001 (ip), vehicle: other) is 92 % of control.
Regarding `CC(=O)N(C)c1ccc(Nc2cc(C)[nH]c3ccc4ncnc4c23)cc1`, the T/C is 114 % of control and 110 % of control (endpoint: mean survival time, dose: 6.25 mg/kg/injection, schedule: Q01DX009 (ip), vehicle: saline); 120 % of control and 110 % of control (endpoint: mean survival time, dose: 12.5 mg/kg/injection, schedule: Q01DX009 (ip), vehicle: saline); 118 % of control and 121 % of control (endpoint: mean survival time, dose: 25.0 mg/kg/injection, schedule: Q01DX009 (ip), vehicle: saline); 119 % of control (endpoint: mean survival time, dose: 50.0 mg/kg/injection, schedule: Q01DX009 (ip), vehicle: saline); 113 % of control and 100 % of control (endpoint: mean survival time, dose: 100.0 mg/kg/injection, schedule: Q01DX009 (ip), vehicle: saline); 156 % of control and 164 % of control (endpoint: median survival time, dose: 67.0 mg/kg/injection, schedule: Q01DX005 (ip), vehicle: saline). Moreover, the T/C (endpoint: median survival time, dose: 100.0 mg/kg/injection, schedule: Q01DX005 (ip), vehicle: saline) was 160 % of control.
Turning to `CN(C)C(=S)NN`, the T/C is, setting by setting: (endpoint: mean survival time, dose: 1.5 mg/kg/injection, schedule: Q01DX001 (ip), vehicle: saline) 92 % of control; (endpoint: mean survival time, dose: 3.0 mg/kg/injection, schedule: Q01DX001 (ip), vehicle: saline) 97 % of control; (endpoint: mean survival time, dose: 6.0 mg/kg/injection, schedule: Q01DX001 (ip), vehicle: saline) 97 % of control.
Take `CSc1ccc(NC(=O)CCl)cc1`: the T/C under setting [3] was 91 % of control.
For the compound `Cc1ccnc(NC2=CC(=O)C(=O)c3ccccc32)c1`, the T/C was 108 % of control (endpoint: mean survival time, dose: 100.0 mg/kg/injection, schedule: Q01DX009 (ip), vehicle: saline sonified) and 103 % of control (endpoint: mean survival time, dose: 200.0 mg/kg/injection, schedule: Q01DX009 (ip), vehicle: saline sonified).
For `C/C=C/c1cc2n(c1)C(=O)c1cc(OC3OC(C)C(NC)C(C)(O)C3O)c(C)c(O)c1NC2O` (configuration not stated), the T/C is, setting by setting: (endpoint: mean survival time, dose: 4.0 micrograms/kg/injection, schedule: Q01DX009 (ip), vehicle: saline) 108 % of control; (endpoint: mean survival time, dose: 8.0 micrograms/kg/injection, schedule: Q01DX009 (ip), vehicle: saline) 110 % of control.
With `COc1cccc(OC)c1OC(=O)Nc1c(Cl)cccc1Cl`, the T/C is, setting by setting: under setting [9], 96 % of control; under setting [10], 92 % of control; under setting [11], 105 % of control.
For the compound `O=C1C=C(O)c2ccccc2C1=O`, the T/C is 106 % of control (endpoint: mean survival time, dose: 25.0 mg/kg/injection, schedule: Q01DX001 (ip), vehicle: saline); 106 % of control (endpoint: mean survival time, dose: 50.0 mg/kg/injection, schedule: Q01DX001 (ip), vehicle: saline); 102 % of control under setting [12].
As for `CC(C)c1ccc(N=Nc2ccc(C(C)C)cc2)cc1`, the T/C runs as follows: under setting [12], 101 % of control; (endpoint: mean survival time, dose: 200.0 mg/kg/injection, schedule: Q01DX001 (ip), vehicle: saline) 97 % of control; (endpoint: mean survival time, dose: 400.0 mg/kg/injection, schedule: Q01DX001 (ip), vehicle: saline) 93 % of control.
For the compound `CN(C)Cc1cccc(CN(C)C)c1O`, the T/C under setting [12] was 106 % of control.
Regarding `O=S(O)C(=Nc1ccccc1)Nc1ccccc1`, the T/C under setting [10] is 94 % of control and the T/C under setting [11] was 106 % of control.
On to `Clc1ccccc1C(Nc1cnccn1)Nc1cnccn1`, for which the T/C runs as follows: under setting [13], 97 % of control and 102 % of control; under setting [14], 97 % of control and 110 % of control; under setting [15], 108 % of control and 109 % of control; under setting [16], 113 % of control and 124 % of control; under setting [17], 92 % of control.
Turning to `CC(=O)N(C)O`, the T/C by setting is: (endpoint: median survival time, dose: 12.5 mg/kg/injection, schedule: Q01DX009 (ip), vehicle: saline with Tween-80) 102 % of control; under setting [13], 102 % of control and 103 % of control; under setting [14], 102 % of control and 103 % of control; under setting [15], 106 % of control; under setting [16], 156 % of control; under setting [17], 176 % of control.
For the compound `O=C(c1ccccc1)c1ccsc1C(=O)O`, the T/C was 96 % of control (endpoint: mean survival time, dose: 25.0 mg/kg/injection, schedule: Q04DX002 (ip), vehicle: saline with Tween-80) and 96 % of control (endpoint: mean survival time, dose: 50.0 mg/kg/injection, schedule: Q04DX002 (ip), vehicle: saline with Tween-80).
Consider `O=C(NO)c1ccc(O)c(O)c1O`, for which the T/C (endpoint: mean survival time, dose: 25.0 mg/kg/injection, schedule: Q01DX009 (ip), vehicle: distilled water + Tween-80) was 110 % of control; the T/C (endpoint: mean survival time, dose: 50.0 mg/kg/injection, schedule: Q01DX009 (ip), vehicle: distilled water + Tween-80) is 108 % of control; the T/C (endpoint: mean survival time, dose: 100.0 mg/kg/injection, schedule: Q01DX009 (ip), vehicle: distilled water + Tween-80) is 116 % of control.
Regarding `C[N+]1(C)CCC(=O)CC1`, the T/C under setting [10] is 101 % of control.
`Nc1nc(=S)c2[nH]c(N=Nc3ccc(S(N)(=O)=O)cc3)nc2[nH]1`: the T/C (endpoint: mean survival time, dose: 50.0 mg/kg/injection, schedule: Q04DX003 (ip), vehicle: Klucel (hydroxypropylcellulose) (HPC)) was 123 % of control.
With `N=C(N)c1ccc(OCCCOc2ccc(NC(=O)Nc3ccc(S(=O)(=O)F)cc3)cc2)cc1`, the T/C by setting is: (endpoint: mean survival time, dose: 50.0 mg/kg/injection, schedule: Q01DX001 (ip), vehicle: saline with Tween-80) 95 % of control; under setting [1], 89 % of control; under setting [4], 93 % of control.
Take `Cc1onc(-c2ccccc2)c1C1=N/C(=C\c2ccc(N(C)C)cc2)C(=O)O1`: the T/C is, setting by setting: under setting [2], 94 % of control; under setting [5], 113 % of control; under setting [7], 90 % of control.
Consider `CCCC[NH-].CCCC[NH-].O=C(O)CC(=O)O.[Pt+2]`, for which the T/C (endpoint: mean survival time, dose: 6.25 mg/kg/injection, schedule: Q04DX003 (ip), vehicle: saline with Tween-80) is 96 % of control; the T/C under setting [18] is 96 % of control; the T/C under setting [3] is 98 % of control.
Take `OC1c2ccccc2CCc2ccccc21`: the T/C reads like this: under setting [18], 97 % of control; (endpoint: mean survival time, dose: 50.0 mg/kg/injection, schedule: Q04DX003 (ip), vehicle: saline with Tween-80) 103 % of control; under setting [3], 101 % of control.
In the case of `Nc1nc2ncc(CNc3ccc(C(=O)NC(CCC(=O)O)C(=O)O)cn3)nc2c(=O)[nH]1` (configuration not stated), the T/C (endpoint: mean survival time, dose: 75.0 mg/kg/injection, schedule: Q01DX001 (ip), vehicle: other) is 102 % of control.
